Patent publication US8129396B2, “2-[1H-benzimidazol-2(3H)-ylidene]-2-(pyrimidin-2-yl)acetamides and 2-[benzothiazol-2(3H)-ylidene]-2-(pyrimidin-2-yl)acetamides as kinase inhibitors” (Telik, Inc., priority 2008, dated 2012)
Read-outs that look alike come from different tables or passages of the source.

Key:
[1] = target: T1, VEGFR2 kinase (Homo sapiens, UniProt P35968); test: VEGFR2 kinase assay; format: biochemical; details: 6 μM ATP, 1 mM MnCl2; rounded to 1 significant figure
T1 construct: purchased Cell Signaling Technology
How it was run: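 VEGFR2 phosphorylates CSKtide with 6 μM ATP and 1 mM MnCl2 for 1 hr, otherwise following the Aurora A kinase protocol. Detection by IMAP fluorescence polarization, binding reagent diluted 1:1200 in 1:1 binding buffer A/B. Run in duplicate with solvent control.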

[2] = tested on: p-H3 in HCT116 cells; test: Histone phosphorylation (p-H3) assay; format: cell-based; details: Homo sapiens, read-out: p-H3 IC50
How it was run: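 HCT116 cells (2.5×10^4/well, attached overnight) treated 4 h with 8-point 3-fold compound dilutions at 0.5% DMSO. Lysates dot-blotted onto nitrocellulose and probed for p-H3 with β-actin on the same membrane, fluorescent secondary antibodies, Odyssey scan; duplicate wells.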

[3] = tested on: HCT116 (human colon carcinoma) cells; test: HCT116 cytotoxicity assay (CellTiter-Glo); format: cell-based; details: HCT-116, 72 h, read-out: HCT116 IC50
[4] = target: T2, Aurora B kinase (Homo sapiens, UniProt Q96GD4); test: Aurora B kinase assay (IMAP fluorescence polarization); format: biochemical; details: 10 μM ATP; rounded to 1 significant figure; read-out: Aur-B IC50
T2 construct: purchased BPS Bioscience
How it was run: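 Reaction started with 100 nM fluorescein-labelled PKAtide and 10 μM ATP, run 45 min at room temperature, then stopped with IMAP binding reagent (1:400). After 30 min shaking at room temperature, fluorescence polarization read; run in duplicate with solvent control.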

[5] = target: T3, Aurora A kinase (Homo sapiens, UniProt O14965); test: Aurora A kinase assay (IMAP fluorescence polarization); format: biochemical; details: 10 μM ATP; rounded to 1 significant figure; read-out: Aur-A IC50
T3 construct: purchased Upstate Biotech
T3 sequence (O14965 1-403): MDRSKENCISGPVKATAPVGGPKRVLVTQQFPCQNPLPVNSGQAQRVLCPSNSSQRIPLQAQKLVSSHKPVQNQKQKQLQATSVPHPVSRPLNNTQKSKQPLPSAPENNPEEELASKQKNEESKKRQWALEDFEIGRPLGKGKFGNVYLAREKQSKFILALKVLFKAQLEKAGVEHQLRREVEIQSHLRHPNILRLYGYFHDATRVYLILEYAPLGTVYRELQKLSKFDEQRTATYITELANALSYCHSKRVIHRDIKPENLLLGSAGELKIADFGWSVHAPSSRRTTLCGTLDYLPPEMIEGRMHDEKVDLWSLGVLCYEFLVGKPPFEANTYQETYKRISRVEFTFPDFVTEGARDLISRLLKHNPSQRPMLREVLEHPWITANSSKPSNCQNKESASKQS
How it was run: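 Compounds (eight 3-fold dilutions, 2.5% DMSO final) were preincubated 5 min at room temperature with Aurora A kinase in buffer with 1 mM DTT. Reaction with 100 nM fluorescein-PKAtide and 10 μM ATP ran 45 min at room temperature, then was stopped with IMAP binding reagent; fluorescence polarization was read after 30 min.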

[6] = tested on: HUVEC-2 (human umbilical vein endothelial cells); test: HUVEC VEGF-dependent proliferation assay (BrdU); format: cell-based; details: read-out: HUVEC IC50
How it was run: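 HUVEC-2 cells on gelatin got serially diluted compound (0.5% DMSO final), and VEGF (25 ng/mL) was added 2 hr later. BrdU (10 μM) went in after one day, with labelling for another day. VEGF-dependent proliferation was read by BrdU detection, in triplicate.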

[7] = tested on: HL60 (human promyelocytic leukemia) cells; test: HL60 cytotoxicity assay (CellTiter-Glo); format: cell-based; details: HL-60, 72 h, read-out: HL60 IC50
Excerpt: The cell lines HL60 (human promyelocytic leukemia) and HCT116 (human colon carcinoma) were obtained from the American Type Culture Collection, Manassas, Va., U.S.A., and HUVEC-2 (human umbilical vein endothelial cells) from BD Biosciences, Bedford, Mass., U.S.A. Aurora A kinase was obtained from Upstate Biotech, Billerica, Mass., U.S.A.; Aurora B kinase from BPS Bioscience, San Diego, Calif., U.S.A.; and VEGFR2 kinase from Cell Signaling Technology, Danvers, Mass., U.S.A. The IMAP FP Screening Express kit was obtained from Molecular Devices, Sunnyvale, Calif., U.S.A.; the CellTiter-Glo assay kit from Promega Corporation, Madison, Wis., U.S.A.; and the Cellular DNA Cytometric Analysis Reagent Kit and BrdU labeling and detection kit from Roche Diagnostics Corporation, Indianapolis, Ind., U.S.A. All products were used in accordance with manufacturer's directions. Kinase inhibition assays and the histone phosphorylation (p-H3) assay were conducted in duplicate, and the cytotoxicity and HUVEC proliferation assays were conducted in triplicate, in each case with solvent control.
Log-phase cells were trypsinized, collected by centrifugation, and resuspended in a small volume of fresh medium, and the density of viable cells was determined following Trypan Blue staining. Cells were diluted in fresh media (1×10^4 cells/mL for HL60 and 4×10^4 cells/mL for HCT116 cells), the test compounds (concentrations between 0.1 μM and 200 μM, dissolved in DMSO, 50 μL) added immediately after dilution to achieve a final DMSO concentration of 0.5%, then the suspensions added at 150 μL/well to 96-well plates, and incubated overnight to allow attachment in the case of adherent cells. The cells were cultured for three days (about three doubling times). The cells were then collected by centrifugation, and 100 μL of the culture supernatant was replaced by the CellTiter-Glo reagent. After incubation for 15 minutes at room temperature, the plate was read with a luminometer.

[8] = HCT-116, HCT116 cells, 4 hr incubation
[9] = cytotoxicity, three days culture
[10] = VEGF (25 ng/mL)-dependent proliferation

T1 sequence (P35968 20-1356): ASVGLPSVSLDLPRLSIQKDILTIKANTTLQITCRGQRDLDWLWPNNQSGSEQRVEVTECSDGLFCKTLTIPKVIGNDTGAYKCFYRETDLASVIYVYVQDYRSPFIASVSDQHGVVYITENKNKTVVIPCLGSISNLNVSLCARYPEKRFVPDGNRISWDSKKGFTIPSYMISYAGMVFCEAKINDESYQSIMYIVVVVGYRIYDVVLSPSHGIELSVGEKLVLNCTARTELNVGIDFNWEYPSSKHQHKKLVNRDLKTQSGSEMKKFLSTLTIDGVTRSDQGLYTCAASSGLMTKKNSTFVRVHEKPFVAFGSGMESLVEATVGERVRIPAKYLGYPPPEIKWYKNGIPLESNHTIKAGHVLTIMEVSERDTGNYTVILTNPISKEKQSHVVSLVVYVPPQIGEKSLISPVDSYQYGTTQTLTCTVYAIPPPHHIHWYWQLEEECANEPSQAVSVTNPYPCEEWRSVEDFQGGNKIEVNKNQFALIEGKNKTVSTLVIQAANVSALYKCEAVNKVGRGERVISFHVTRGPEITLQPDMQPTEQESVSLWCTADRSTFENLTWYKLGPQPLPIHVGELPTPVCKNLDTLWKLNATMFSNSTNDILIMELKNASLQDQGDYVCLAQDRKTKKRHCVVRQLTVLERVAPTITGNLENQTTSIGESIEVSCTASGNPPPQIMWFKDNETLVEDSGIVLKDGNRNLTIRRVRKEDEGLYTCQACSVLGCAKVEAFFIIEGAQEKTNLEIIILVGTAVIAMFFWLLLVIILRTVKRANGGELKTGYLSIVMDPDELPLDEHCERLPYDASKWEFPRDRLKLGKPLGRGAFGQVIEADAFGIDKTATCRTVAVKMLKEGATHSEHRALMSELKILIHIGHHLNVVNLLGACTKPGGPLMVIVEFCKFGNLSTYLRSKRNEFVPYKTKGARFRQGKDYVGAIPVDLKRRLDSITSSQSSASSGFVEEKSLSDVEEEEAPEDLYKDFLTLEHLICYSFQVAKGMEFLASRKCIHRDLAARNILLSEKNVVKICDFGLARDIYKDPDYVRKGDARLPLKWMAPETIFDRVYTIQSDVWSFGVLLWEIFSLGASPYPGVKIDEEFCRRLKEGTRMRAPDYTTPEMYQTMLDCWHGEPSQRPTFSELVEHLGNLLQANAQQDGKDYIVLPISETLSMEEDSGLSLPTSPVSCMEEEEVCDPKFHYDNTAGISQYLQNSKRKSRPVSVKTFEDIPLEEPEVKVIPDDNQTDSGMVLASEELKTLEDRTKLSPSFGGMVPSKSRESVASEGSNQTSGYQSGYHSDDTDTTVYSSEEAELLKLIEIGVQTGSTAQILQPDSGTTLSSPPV
T2 sequence (Q96GD4 whole entry): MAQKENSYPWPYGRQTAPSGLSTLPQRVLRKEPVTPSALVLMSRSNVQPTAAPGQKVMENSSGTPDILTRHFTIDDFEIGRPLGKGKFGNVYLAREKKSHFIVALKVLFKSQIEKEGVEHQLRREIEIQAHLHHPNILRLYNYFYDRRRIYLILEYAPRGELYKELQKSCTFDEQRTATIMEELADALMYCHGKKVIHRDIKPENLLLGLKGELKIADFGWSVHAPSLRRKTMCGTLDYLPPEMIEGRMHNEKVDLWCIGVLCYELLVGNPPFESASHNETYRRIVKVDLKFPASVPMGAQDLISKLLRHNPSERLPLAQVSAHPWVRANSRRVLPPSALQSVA

IC50 [1] [nM] | IC50 [2, 8] [nM] | IC50 [4] [nM] | IC50 [5] [nM] | SMILES | IC50 [3, 9] [nM] | IC50 [6, 10] [nM] | IC50 [7, 9] [nM] | IC50 ([2]; HCT-116, 4 h) [nM] | IC50 [3] [nM] | IC50 [6] [nM] | IC50 [7] [nM]
20 | 300 | 6 | 7 | NC(=O)/C(=C1\Nc2ccc(C(=O)NCCN3CCC(F)(F)CC3)cc2N1)c1nccc(C(F)(F)F)n1 [Compound 51A] | 500 | 30 | 50 |  |  |  | 
30 | 200 | 8 | 4 | NC(=O)/C(=C1\Nc2ccc(NC(=O)Cn3ccnc3)cc2N1)c1nccc(C(F)(F)F)n1 [Compound 86A] | 400 | 30 | 800 |  |  |  | 
20 | 100 | 9 | 7 | NC(=O)/C(=C1\Nc2ccc(NC(=O)CCN3CCOCC3)cc2N1)c1nccc(C(F)(F)F)n1 [Compound 84A] | 200 | 60 | 100 |  |  |  | 
10 | 200 | 9 | 8 | NC(=O)/C(=C1\Nc2ccc(NC(=O)CCn3ccnc3)cc2N1)c1nccc(C(F)(F)F)n1 [Compound 87A] | 200 | 90 | 100 |  |  |  | 
9 | 500 | 10 | 2 | NC(=O)/C(=C1\Nc2ccc(NC(=O)C3CC3)cc2N1)c1nccc(C(F)(F)F)n1 [Compound 33A] | 300 |  | 300 |  |  |  | 
10 | 80 | 4 | 20 | CCN(C(=O)[C@@H]1CCCN1C)c1ccc2c(c1)N/C(=C(/C(N)=O)c1nccc(C(F)(F)F)n1)N2 [Compound 145A] | 200 |  | 400 |  |  |  | 
6 | 40 | 3 | 2 | NC(=O)/C(=C1\Nc2ccc(CCn3ccnc3)cc2N1)c1nccc(C(F)(F)F)n1 [Compound 96A] | 300 |  | 100 |  |  |  | 

The remaining lines, values behind:

SMILES | IC50 [1] [nM] | IC50 [2, 8] [nM] | IC50 [4] [nM] | IC50 [5] [nM] | IC50 [3, 9] [nM] | IC50 [6, 10] [nM] | IC50 [7, 9] [nM] | IC50 ([2]; HCT-116, 4 h) [nM] | IC50 [3] [nM] | IC50 [6] [nM] | IC50 [7] [nM]
NC(=O)/C(=C1\Nc2ccc(Cn3ccnc3)cc2S1)c1nccc(C(F)(F)F)n1 [Compound 89A] | 6 | 100 | 5 | 5 | 500 | 80 | 700 |  |  |  | 
NC(=O)C(=C1Nc2ccccc2N1)c1nccc(C(F)(F)F)n1 [Compound 1A, 2-[1H-benzimidazol-2(3H)-ylidene]-2-(4-trifluoromethylpyrimidin-2-yl)acetamide] | 10 | 200 | 5 | 10 | 300 | 70 | 1000 |  |  |  | 
NC(=O)/C(=C1\Nc2ccc(CC(=O)NCCCN3CCOCC3)cc2S1)c1nccc(C(F)(F)F)n1 [Compound 110A] | 20 |  | 20 | 50 |  |  |  | 200 | 200 | 80 | 800
NC(=O)/C(=C1\Nc2ccc(Cn3ccnc3)cc2N1)c1nccc(C(F)(F)F)n1 [Compound 90A] | 4 | 70 | 9 | 4 | 200 | 90 | 100 |  |  |  | 
NC(=O)/C(=C1\Nc2ccc(CN3CCNCC3)cc2S1)c1nccc(C(F)(F)F)n1 [Compound 94A] | 10 | 80 | 7 | 7 | 200 | 50 | 100 |  |  |  | 
NC(=O)/C(=C1\Nc2ccccc2S1)c1nccc(C(F)(F)F)n1 [Compound 2A] | 90 | 2000 | 6 | 30 | 2000 | 50 | 3000 |  |  |  | 
NC(=O)/C(=C1\Nc2ccc(CCN3CCSCC3)cc2S1)c1nccc(C(F)(F)F)n1 [Compound 103A] | 20 | 2000 | 10 | 20 | 2000 | 100 | 100 |  |  |  | 
NC(=O)/C(=C1\Nc2ccc(S(=O)(=O)NCCCN3CCOCC3)cc2S1)c1nccc(C(F)(F)F)n1 [Compound 127A] | 20 | 200 | 6 | 20 | 600 | 40 | 500 |  |  |  | 
NC(=O)C(=C1Nc2ccccc2S1)c1ncc(C(=O)O)c(C(F)(F)F)n1 (single isomer, unassigned) [Compound 5A, 2-[benzothiazol-2(3H)-ylidene]-2-(5-carboxy-4-trifluoromethylpyrimidin-2-yl)acetamide] | 20 | 3000 | 8 | 20 | 10000 |  | > 10000 |  |  |  | 
COc1ccnc(C(C(N)=O)=C2Nc3ccccc3N2)n1 [Compound 17A] | 1 | 600 | 30 | 300 | 5000 |  | 5000 |  |  |  | 
NC(=O)/C(=C1\Nc2ccccc2S1)c1nc(C(F)(F)F)cc(C(F)(F)F)n1 [Compound 9A] | 60 | > 5000 | 7 | 10 | > 20000 |  | > 20000 |  |  |  | 
NC(=O)/C(=C1\Nc2ccccc2S1)c1nc(-c2cccnc2)cc(C(F)(F)F)n1 [Compound 10A] | 40 | 5000 | 10 | 10 | 1000 |  | 2000 |  |  |  | 
NC(=O)/C(=C1\Nc2ccc(CCc3cccnc3)cc2S1)c1nccc(C(F)(F)F)n1 [Compound 99A] | 100 | 1000 | 7 | 20 | 3000 |  | 2000 |  |  |  | 
Cc1cc(C(F)(F)F)nc(C(C(N)=O)=C2Nc3ccccc3N2)n1 [Compound 138A] | 40 | 500 | 8 | 8 | 1000 |  | 400 |  |  |  | 
NC(=O)/C(=C1\Nc2ccccc2S1)c1nccc(-c2ccccc2)n1 [Compound 20A] | 200 | > 5000 | 20 | 90 | 8000 |  | 600 |  |  |  | 
Cc1cc2c(cc1C)NC(=C(C(N)=O)c1ncc(C(=O)NCCN3CCOCC3)c(C(F)(F)F)n1)N2 [Compound 136A] | 30 | 200 |  | 20 | 800 | 200 | 200 |  |  |  | 
